# According to patent US4259332A, “Novel taurine derivatives” (priority 1979, dated 1981):
# Columns and labels:
# Acute toxicity, rat = conditions: in vivo, intravenous, sodium salt solution
# Protocol: (§1) Tests were carried out both on mice and rats by means of oral, subcutaneous, intraperitoneal and intravenous administration.
# (§2) In the case of oral administration, the product was used in the acid form suspended in an aqueous solution of carboxymethylcellulose, whilst in the case of parenteral administration it was made soluble by salt formation with sodium hydroxide in a physiological solution with a neutral final pH.
# (§3) The results are given in the following table, together with the results found in the literature for acetylsalicylic acid (ASA).
# (§4) Wherever possible, the values of the LD50 were calculated using the probit method; if no mortality took place even at very high dosages, the maximum dosage tested has been given.
# [1] = Edema as a result of nystatin in the rat's paw; format: in vivo; conditions: p.o.
# Protocol: (B) Edema as a result of nystatin in the rat's paw. The long duration of this type of edema enabled the animals to be repeatedly treated in order to ascertain the presence if any of the protracted effect of the AST product also using parenteral administration. The comparison was carried out using a molar equivalent dose of acetylsalicylic acid administrated orally and with the carboxymethylcellulose placebo also only administered orally. The AST product was used in the acid form orally and in the salt form using intraperitoneal administration.
# The dosages of the drugs, always proportional to one another, were varied from day to day, i.e.: the first day a dosage of 200 mg/Kg of ASA and 300 mg/Kg of AST; the second day a double dose of each; the third day a double dose of each divided into two equal components administered with a spacing of 9 hours (10 am and 7 pm respectively); the fourth day no treatment in order to check the length of the effect after the fourth administration.
# The […] was injected into the paw on the night before the first treatment with the drugs and the volume of the paw was measured in hundredths of milliliter.
# Acute toxicity, mouse = conditions: in vivo
# Protocol: as §1, §2, §3, §4
# [2] = Antipyretic activity: pyrexia from subcutaneous yeast in the rat; format: in vivo; conditions: p.o., ASA 200, AST 300 mg/Kg
# Protocol: Pyrexia from subcutaneous yeast in the rat. The AST product was administered orally in the acid from and the salt form with sodium, and by the intraperitoneal method in the salt form. It was compared with a molar equivalent dose of acetylsalicylic acid administered orally and with a carboxymethylcellulose placebo. The pyrexia was induced with a subcutaneous injection of yeast on the evening prior to the drug treatment, i.e. 16 hours before.
# [3] = Analgesic activity: convulsions produced by phenylquinone; format: in vivo, mouse; conditions: oral, ASA 200, AST 300 mg/Kg
# Protocol: (A) Test of convulsions produced by phenylquinone injected into mice by the intraperitoneal route. The AST product was administered orally both in the acid form (AST Ac). and as the sodium salt (AST Na). It was compared with a molar equivalent dosage of acetylsalicylic acid and with a carboxymethylcellulose placebo. The convulsions were induced at varying intervals from the oral treatment counting from the first 20 minutes after the injection of phenylquinone.
# [4] = Edema resulting from yeast in the paw of the rat; format: in vivo; conditions: oral, ASA 200, AST 300 mg/Kg
# Protocol: (A) Edema resulting from yeast in the paw of the rat. The AST product was administered orally both in the acid and sodium salt form. It was compared with a molar equivalent dose of acetylsalicylic acid and with carboxymethylcellulose placebo. The edema of the paw was induced with a local injection of the yeast simultaneously with the oral treatment with the drugs, and the volume of the paw was measured in hundredths of milliliter.
# [5] = Pharmaco-toxicological tests on laboratory animals (summary); format: in vivo
# [6] = Analgesic activity: mechanical pressure test on inflamed rat's paw; format: in vivo; conditions: oral, ASA 200, AST 300 mg/Kg
# Protocol: (B) Mechanical pressure test on inflamed rat's paw. The AST product was administered both in the acid and sodium salt form by the oral method. It was compared with a molar equivalent dosage of acetylsalicylic acid and with a carboxymethylcellulose placebo. The inflammation of the paw was induced by a local injection of yeast simultaneously with the oral treatment with the drugs and the tenderness was measured in grams of mechanical pressure required to cause a reaction in the animal.
# [7] = format: in vivo, rat; conditions: rat, in vivo, po, 335 mg/kg
# Protocol: Rats which had not been fed for 24 hours were used. The AST product was administered orally as the acid or the sodium salt at a dosage of 335 mg/Kg suspended in 1% carboxymethylcellulose. […] Both the methods of treatment and the observation time were identical for the 3 groups of animals.
# [8] = Toxicology, oral treatment of mice for 180 days, Compound A; format: in vivo, mouse; conditions: 200 mg/kg orally
# [9] = Choleretic activity in cannulated rats; format: in vivo, rat
# Protocol: Rats were fitted with a cannula, the bile volume was measured after the first hour, they were then treated with a test compound and the bile volume was measure after the second hour, so as to determine the percentage change. The various compounds were administered intravenously at a dose of 100 mg/kg.
# [10] = Protection against hepatic intoxication by CCl4 and cold, Compound A (BSF in blood); format: in vivo; conditions: 500 mg/kg simultaneously with CCl4; 5 h at 4° C.
# Protocol: Oral administration of 5 ml/kg of a 20% solution of CCl4 in oil was followed by exposure for 5 hours to a temperature of 4° C. 500 Mg/kg of the Compound A of the invention were administered simultaneously with the CCl4. The BSF was tested in the blood. An average of 20 animals were used per group, and relative to the controls there was a reduction of 16%.
# [11] = Vasodilator activity (vasodilation of the ocular conjunctiva in guinea pigs); format: in vivo, guinea pig
# [12] = Antilipemic action, Morris or Handler diet, Compound A; format: in vivo, Wistar rat; conditions: for Bile BSF excretion, percentage change vs controls / Serum beta-lipoproteins, percentage change vs controls / Serum total cholesterol, percentage change vs controls / Serum total lipids, percentage change vs controls: 50 days, 200 mg/kg orally
# Protocol: Wistar rats were treated for 50 days with a Morris diet or a Handler diet. Simultaneously with the diet they received 200 mg/kg of Compound A or of choline orally every day. The controls only received the diet. The following were examined at the end of the treatment: (a) total cholesterol, total lipids and beta-lipoproteins in the serum, (b) BSF excretion in the bile.
# [13] = 100 mg/kg i.v., given after first hour
compound,measurement,setting,value
"CC(=O)Oc1ccccc1C(=O)OCCN(CCOC(=O)c1ccccc1OC(C)=O)CCS(=O)(=O)O [AST, N,N-di(acetylsalicyloyloxy ethyl)taurine]",LD50,"Acute toxicity, rat",530 mg/kg
same,% Inhibition of the edema in respect of treatment with placebo,"[1]; 1st day, 2h after 1st dose, ASA 200, AST Ac 300 mg/Kg",0%
same,% Inhibition of the edema in respect of treatment with placebo,"[1]; 1st day, 4h after 1st dose, ASA 200, AST Ac 300 mg/Kg",3%
same,% Inhibition of the edema in respect of treatment with placebo,"[1]; 1st day, 8h after 1st dose, ASA 200, AST Ac 300 mg/Kg",3%
same,% Inhibition of the edema in respect of treatment with placebo,"[1]; 2nd day, 2h after 2nd dose, ASA 400, AST Ac 600 mg/Kg",3%
same,% Inhibition of the edema in respect of treatment with placebo,"[1]; 2nd day, 4h after 2nd dose, ASA 400, AST Ac 600 mg/Kg",2%
same,% Inhibition of the edema in respect of treatment with placebo,"[1]; 2nd day, 8h after 2nd dose, ASA 400, AST Ac 600 mg/Kg",10%
same,% Inhibition of the edema in respect of treatment with placebo,"[1]; 3rd day, 2h after 3rd dose, ASA 200, AST Ac 300 mg/Kg",8%
same,% Inhibition of the edema in respect of treatment with placebo,"[1]; 3rd day, 4h after 3rd dose, ASA 200, AST Ac 300 mg/Kg",7%
same,% Inhibition of the edema in respect of treatment with placebo,"[1]; 3rd day, 8h after 3rd dose, ASA 200, AST Ac 300 mg/Kg",6%
same,% Inhibition of the edema in respect of treatment with placebo,"[1]; 4th day, 13h after 4th dose, ASA 200, AST Ac 300 mg/Kg",3%
same,% Inhibition of the edema in respect of treatment with placebo,"[1]; 4th day, 17h after 4th dose, ASA 200, AST Ac 300 mg/Kg",3%
same,% Inhibition of the edema in respect of treatment with placebo,"[1]; 4th day, 23h after 4th dose, ASA 200, AST Ac 300 mg/Kg",0%
same,LD50,"Acute toxicity, mouse; intravenous, sodium salt solution",520 mg/kg
same,LD50,"Acute toxicity, mouse; ip, intraperitoneal, sodium salt solution",1300 mg/kg
same,LD50,"Acute toxicity, mouse; oral, acid form in carboxymethylcellulose",5000 mg/kg
same,LD50,"Acute toxicity, mouse; sc, subcutaneous, sodium salt solution",2000 mg/kg
same,% Inhibition of the pyrexia in respect of treatment with placebo,[2]; 1h,18%
same,% Inhibition of the pyrexia in respect of treatment with placebo,[2]; 2h,26%
same,% Inhibition of the pyrexia in respect of treatment with placebo,[2]; 4h,30%
same,% Inhibition of the pyrexia in respect of treatment with placebo,[2]; 6h,25%
same,% Inhibition of the pyrexia in respect of treatment with placebo,[2]; 8h,9%
same,Inhibition % of convulsions in respect of treatment with placebo,[3]; 1h,10%
same,Inhibition % of convulsions in respect of treatment with placebo,[3]; 2h,11%
same,Inhibition % of convulsions in respect of treatment with placebo,[3]; 4h,0%
same,Inhibition of the edema with respect to treatment with placebo,[4]; 1h,42
same,Inhibition of the edema with respect to treatment with placebo,[4]; 3h,38
same,Inhibition of the edema with respect to treatment with placebo,[4]; 5h,48
same,"Antiinflammatory, analgesic and antipyretic properties (in words)",[5]; compared with acetylsalicylic acid,"marked antiinflammatory, analgesic and antipyretic properties comparable to those of acetylsalicylic acid"
same,Duration of pharmacodynamic activity in comparison with acetylsalicylic acid (in words),[5]; in vivo,more prolonged pharmacodynamic activity
same,Gastric injury (in words),[5]; in vivo,did not exert any appreciable gastric injury
same,Toxicity in comparison with acetylsalicylic acid (in words),[5]; in vivo,less toxic
same,% Inhibition of the hyperalgesia in respect of treatment with placebo,[6]; 1h,47%
same,% Inhibition of the hyperalgesia in respect of treatment with placebo,[6]; 3h,47%
same,% Inhibition of the hyperalgesia in respect of treatment with placebo,[6]; 5h,19%
same,Alteration of the gastric or intestinal mucosa,[7],did not show any alteration of the gastric or intestinal mucosa
"O=C(OCCN(CCS(=O)(=O)O)C(=O)c1cccnc1)c1cccnc1 [Compound A, N-nicotinoyl-N-(2-nicotinoyloxy)ethyltaurine]",Mortality,[8],no mortality
same,Bile dry residue change,[9]; 100 mg/kg i.v.,+40.0%
same,Bile volume change,[9]; 100 mg/kg i.v.,+52.0%
same,Choleretic activity (in words),[9]; 100 mg/kg i.v.,appearance of choleretic activity
same,Bile dry residue after 2 h,[9]; [13],35.3 mg/h
same,Bile volume after 2 h,[9]; [13],1.14 mL/h
same,Bile dry residue after 1 h,[9]; before treatment (first hour),25.7 mg/h
same,Bile volume after 1 h,[9]; before treatment (first hour),0.75 mL/h
same,Reduction of BSF in the blood relative to controls,[10],16%
same,Vasodilator effect: duration,[11]; 0.1 mg/kg endoperitoneal,0 min
same,Vasodilator effect: positive response,[11]; 0.1 mg/kg endoperitoneal,0%
same,Vasodilator effect: duration,[11]; 1.0 mg/kg endoperitoneal,120 min
same,Vasodilator effect: positive response,[11]; 1.0 mg/kg endoperitoneal,80%
same,Vasodilator effect: time of appearance,[11]; 1.0 mg/kg endoperitoneal,90 s
same,Vasodilator effect: duration,[11]; 10.0 mg/kg endoperitoneal,120 min
same,Vasodilator effect: positive response,[11]; 10.0 mg/kg endoperitoneal,100%
same,Vasodilator effect: time of appearance,[11]; 10.0 mg/kg endoperitoneal,96 s
same,Vasodilator activity (in words),[11]; endoperitoneal,better activity than the 3-pyridylcarbinol compound
same,"Bile BSF excretion, percentage change vs controls",[12]; Handler diet,+36.0%
same,"Serum beta-lipoproteins, percentage change vs controls",[12]; Handler diet,-28.9%
same,"Serum total cholesterol, percentage change vs controls",[12]; Handler diet,-26.9%
same,"Serum total lipids, percentage change vs controls",[12]; Handler diet,-19.6%
same,"Bile BSF excretion, percentage change vs controls",[12]; Morris diet,+23.5%
same,"Serum beta-lipoproteins, percentage change vs controls",[12]; Morris diet,-34.3%
same,"Serum total cholesterol, percentage change vs controls",[12]; Morris diet,-14.3%
same,"Serum total lipids, percentage change vs controls",[12]; Morris diet,-17.0%
same,Oral absorption (deduced from diet tests),"[12]; oral, Morris and Handler diets",absorbed orally
